Source: patent publication US8802661B2, “C-28 amides of modified C-3 betulinic acid derivatives as HIV maturation inhibitors” (priority 2010, dated 2014)
Read-outs that look alike come from different tables or passages of the source.

Tested on: recombinant NL4-3 virus (Renilla luciferase in nef, Gag P373S)
Assay: HIV Cell Culture Assay (luciferase reporter virus in MT-2 cells)
Format: cell-based
Outline: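 MT-2 cells infected 4–5 days with NL4-3 carrying Renilla luciferase in nef and Gag P373S, with serial dilutions of inhibitor present. Antiviral activity quantified by luciferase activity, using Dual Luciferase reagents premixed with lysis buffer and read immediately.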

| Compound | EC50 (NL43) [nM] | EC50 (NL43, read-out: EC50 Group) [nM] |
| --- | --- | --- |
| C=C(C)[C@@H]1CC[C@]2(C(=O)NCc3ccc(Cl)cc3)CC[C@]3(C)[C@H](CC[C@@H]4[C@@]5(C)CC=C(c6ccc(C(=O)O)cc6)C(C)(C)[C@@H]5CC[C@]43C)[C@@H]12 [Example 60, 4-((1R,3aS,5aR,5bR,7aR,11aS,11bR,13aR,13bR)-3a-(4-chlorobenzylcarbamoyl)-5a,5b,8,8,11a-pentamethyl-1-(prop-1-en-2-yl)-2,3,3a,4,5,5a,5b,6,7,7a,8,11,11a,11b,12,13,13a,13b-octadecahydro-1H-cyclopenta[a]chrysen-9-yl)benzoic acid] | 48 | – |
| C=C(C)[C@@H]1CC[C@]2(C(=O)N[C@H](C(=O)O)C(C)C)CC[C@]3(C)[C@H](CC[C@@H]4[C@@]5(C)CC=C(c6ccc(C(=O)O)cc6)C(C)(C)[C@@H]5CC[C@]43C)[C@@H]12 [Example 61, 4-((1R,3aS,5aR,5bR,7aR,11aS,11bR,13aR,13bR)-3a-((S)-1-carboxy-2-methylpropylcarbamoyl)-5a,5b,8,8,11a-pentamethyl-1-(prop-1-en-2-yl)-2,3,3a,4,5,5a,5b,6,7,7a,8,11,11a,11b,12,13,13a,13b-octadecahydro-1H-cyclopenta[a]chrysen-9-yl)benzoic acid] | – | < 100 |
| C=C(C)[C@@H]1CC[C@]2(C(=O)NCC(=O)O)CC[C@]3(C)[C@H](CC[C@@H]4[C@@]5(C)CC=C(c6ccc(C(=O)O)cc6)C(C)(C)[C@@H]5CC[C@]43C)[C@@H]12 [Example 62, 4-((1R,3aS,5aR,5bR,7aR,11aS,11bR,13aR,13bR)-3a-(carboxymethylcarbamoyl)-5a,5b,8,8,11a-pentamethyl-1-(prop-1-en-2-yl)-2,3,3a,4,5,5a,5b,6,7,7a,8,11,11a,11b,12,13,13a,13b-octadecahydro-1H-cyclopenta[a]chrysen-9-yl)benzoic acid] | – | > 100 |
| C=C(C)[C@@H]1CC[C@]2(C(=O)N[C@@H](CCSC)C(=O)O)CC[C@]3(C)[C@H](CC[C@@H]4[C@@]5(C)CC=C(c6ccc(C(=O)O)cc6)C(C)(C)[C@@H]5CC[C@]43C)[C@@H]12 [Example 63, 4-((1R,3aS,5aR,5bR,7aR,11aS,11bR,13aR,13bR)-3a-((S)-1-carboxy-3-(methylthio)propylcarbamoyl)-5a,5b,8,8,11a-pentamethyl-1-(prop-1-en-2-yl)-2,3,3a,4,5,5a,5b,6,7,7a,8,11,11a,11b,12,13,13a,13b-octadecahydro-1H-cyclopenta[a]chrysen-9-yl)benzoic acid] | – | > 100 |
| C=C(C)[C@@H]1CC[C@]2(C(=O)NCC(O)CN)CC[C@]3(C)[C@H](CC[C@@H]4[C@@]5(C)CC=C(c6ccc(C(=O)O)cc6)C(C)(C)[C@@H]5CC[C@]43C)[C@@H]12 (stereo partly drawn) [Example 64, 4-((1R,3aS,5aR,5bR,7aR,11aS,11bR,13aR,13bR)-3a-(3-amino-2-hydroxypropylcarbamoyl)-5a,5b,8,8,11a-pentamethyl-1-(prop-1-en-2-yl)-2,3,3a,4,5,5a,5b,6,7,7a,8,11,11a,11b,12,13,13a,13b-octadecahydro-1H-cyclopenta[a]chrysen-9-yl)benzoic acid] | – | < 100 |
| C=C(C)[C@@H]1CC[C@]2(C(=O)N[C@@H](CN(C)C)C(=O)O)CC[C@]3(C)[C@H](CC[C@@H]4[C@@]5(C)CC=C(c6ccc(C(=O)O)cc6)C(C)(C)[C@@H]5CC[C@]43C)[C@@H]12 [Example 65, 4-((1R,3aS,5aR,5bR,7aR,11aS,11bR,13aR,13bR)-3a-((S)-1-carboxy-2-(dimethylamino)ethylcarbamoyl)-5a,5b,8,8,11a-pentamethyl-1-(prop-1-en-2-yl)-2,3,3a,4,5,5a,5b,6,7,7a,8,11,11a,11b,12,13,13a,13b-octadecahydro-1H-cyclopenta[a]chrysen-9-yl)benzoic acid] | – | < 100 |
| C=C(C)[C@@H]1CC[C@]2(C(=O)NCCN(C)C)CC[C@]3(C)[C@H](CC[C@@H]4[C@@]5(C)CC=C(c6ccc(C(=O)O)s6)C(C)(C)[C@@H]5CC[C@]43C)[C@@H]12 [Example 66, 5-((1R,3aS,5aR,5bR,7aR,11aS,11bR,13aR,13bR)-3a-(2-(dimethylamino)ethylcarbamoyl)-5a,5b,8,8,11a-pentamethyl-1-(prop-1-en-2-yl)-2,3,3a,4,5,5a,5b,6,7,7a,8,11,11a,11b,12,13,13a,13b-octadecahydro-1H-cyclopenta[a]chrysen-9-yl)thiophene-2-carboxylic acid] | – | < 100 |
| C=C(C)[C@@H]1CC[C@]2(C(=O)NCCN(C(C)C)C(C)C)CC[C@]3(C)[C@H](CC[C@@H]4[C@@]5(C)CC=C(c6ccc(C(=O)O)cc6)C(C)(C)[C@@H]5CC[C@]43C)[C@@H]12 [Example 67, 4-((1R,3aS,5aR,5bR,7aR,11aS,11bR,13aR,13bR)-3a-(2-(diisopropylamino)ethylcarbamoyl)-5a,5b,8,8,11a-pentamethyl-1-(prop-1-en-2-yl)-2,3,3a,4,5,5a,5b,6,7,7a,8,11,11a,11b,12,13,13a,13b-octadecahydro-1H-cyclopenta[a]chrysen-9-yl)benzoic acid] | 3.8 | – |
| C=C(C)[C@@H]1CC[C@]2(C(=O)N[C@@H](C)CN(C)C)CC[C@]3(C)[C@H](CC[C@@H]4[C@@]5(C)CC=C(c6ccc(C(=O)O)cc6)C(C)(C)[C@@H]5CC[C@]43C)[C@@H]12 [Example 68, 4-((1R,3aS,5aR,5bR,7aR,11aS,11bR,13aR,13bR)-3a-((S)-1-(dimethylamino)propan-2-ylcarbamoyl)-5a,5b,8,8,11a-pentamethyl-1-(prop-1-en-2-yl)-2,3,3a,4,5,5a,5b,6,7,7a,8,11,11a,11b,12,13,13a,13b-octadecahydro-1H-cyclopenta[a]chrysen-9-yl)benzoic acid] | – | < 100 |
| C=C(C)[C@@H]1CC[C@]2(C(=O)NCCOC)CC[C@]3(C)[C@H](CC[C@@H]4[C@@]5(C)CC=C(c6ccc(C(=O)O)cc6)C(C)(C)[C@@H]5CC[C@]43C)[C@@H]12 [Example 69, 4-((1R,3aS,5aR,5bR,7aR,11aS,11bR,13aR,13bR)-3a-(2-methoxyethylcarbamoyl)-5a,5b,8,8,11a-pentamethyl-1-(prop-1-en-2-yl)-2,3,3a,4,5,5a,5b,6,7,7a,8,11,11a,11b,12,13,13a,13b-octadecahydro-1H-cyclopenta[a]chrysen-9-yl)benzoic acid] | – | < 100 |
| C=C(C)[C@@H]1CC[C@]2(C(=O)NCCN(CC)CC)CC[C@]3(C)[C@H](CC[C@@H]4[C@@]5(C)CC=C(c6ccc(C(=O)O)cc6)C(C)(C)[C@@H]5CC[C@]43C)[C@@H]12 [Example 70, 4-((1R,3aS,5aR,5bR,7aR,11aS,11bR,13aR,13bR)-3a-(2-(diethylamino)ethylcarbamoyl)-5a,5b,8,8,11a-pentamethyl-1-(prop-1-en-2-yl)-2,3,3a,4,5,5a,5b,6,7,7a,8,11,11a,11b,12,13,13a,13b-octadecahydro-1H-cyclopenta[a]chrysen-9-yl)benzoic acid] | – | < 100 |
| C=C(C)[C@@H]1CC[C@]2(C(=O)NCC(O)CO)CC[C@]3(C)[C@H](CC[C@@H]4[C@@]5(C)CC=C(c6ccc(C(=O)O)cc6)C(C)(C)[C@@H]5CC[C@]43C)[C@@H]12 (stereo partly drawn) [Example 71, 4-((1R,3aS,5aR,5bR,7aR,11aS,11bR,13aR,13bR)-3a-(2,3-dihydroxypropylcarbamoyl)-5a,5b,8,8,11a-pentamethyl-1-(prop-1-en-2-yl)-2,3,3a,4,5,5a,5b,6,7,7a,8,11,11a,11b,12,13,13a,13b-octadecahydro-1H-cyclopenta[a]chrysen-9-yl)benzoic acid] | – | < 100 |
| C=C(C)[C@@H]1CC[C@]2(C(=O)NCCN(CC)CCO)CC[C@]3(C)[C@H](CC[C@@H]4[C@@]5(C)CC=C(c6ccc(C(=O)O)cc6)C(C)(C)[C@@H]5CC[C@]43C)[C@@H]12 [Example 72, 4-((1R,3aS,5aR,5bR,7aR,11aS,11bR,13aR,13bR)-3a-(2-(ethyl(2-hydroxyethyl)amino)ethylcarbamoyl)-5a,5b,8,8,11a-pentamethyl-1-(prop-1-en-2-yl)-2,3,3a,4,5,5a,5b,6,7,7a,8,11,11a,11b,12,13,13a,13b-octadecahydro-1H-cyclopenta[a]chrysen-9-yl)benzoic acid] | – | < 100 |
| C=C(C)[C@@H]1CC[C@]2(C(=O)NCCN(C)CCO)CC[C@]3(C)[C@H](CC[C@@H]4[C@@]5(C)CC=C(c6ccc(C(=O)O)cc6)C(C)(C)[C@@H]5CC[C@]43C)[C@@H]12 [Example 73, 4-((1R,3aS,5aR,5bR,7aR,11aS,11bR,13aR,13bR)-3a-(2-((2-hydroxyethyl)(methyl)amino)ethylcarbamoyl)-5a,5b,8,8,11a-pentamethyl-1-(prop-1-en-2-yl)-2,3,3a,4,5,5a,5b,6,7,7a,8,11,11a,11b,12,13,13a,13b-octadecahydro-1H-cyclopenta[a]chrysen-9-yl)benzoic acid] | – | < 100 |
| C=C(C)[C@@H]1CC[C@]2(C(=O)NCCNCCO)CC[C@]3(C)[C@H](CC[C@@H]4[C@@]5(C)CC=C(c6ccc(C(=O)O)cc6)C(C)(C)[C@@H]5CC[C@]43C)[C@@H]12 [Example 74, 4-((1R,3aS,5aR,5bR,7aR,11aS,11bR,13aR,13bR)-3a-(2-(2-hydroxyethylamino)ethylcarbamoyl)-5a,5b,8,8,11a-pentamethyl-1-(prop-1-en-2-yl)-2,3,3a,4,5,5a,5b,6,7,7a,8,11,11a,11b,12,13,13a,13b-octadecahydro-1H-cyclopenta[a]chrysen-9-yl)benzoic acid] | – | < 100 |
| C=C(C)[C@@H]1CC[C@]2(C(=O)NCCN(C)C(C)=O)CC[C@]3(C)[C@H](CC[C@@H]4[C@@]5(C)CC=C(c6ccc(C(=O)O)cc6)C(C)(C)[C@@H]5CC[C@]43C)[C@@H]12 [Example 75, 4-((1R,3aS,5aR,5bR,7aR,11aS,11bR,13aR,13bR)-5a,5b,8,8,11a-pentamethyl-3a-(2-(N-methylacetamido)ethylcarbamoyl)-1-(prop-1-en-2-yl)-2,3,3a,4,5,5a,5b,6,7,7a,8,11,11a,11b,12,13,13a,13b-octadecahydro-1H-cyclopenta[a]chrysen-9-yl)benzoic acid] | – | < 100 |
